Columns and labels:
WD-fed Ldlr-/- mice = experiment: Metabolism, plasma lipids, blood cells and tolerability in WD-fed Ldlr-/- mice with established atherosclerosis; format: in vivo, mouse; details: ~30 mg/kg body weight per day in WD for 6 weeks; for blood leukocyte (total white blood cell) count / blood monocyte count: versus control
Protocol: (§1) Eight-week-old male Ldlr^-/- mice on the C57BL/6J background were purchased from Jackson Laboratory (stock # 002207) and fed a Western-type Diet (WD) for 16 weeks (Envigo, TD.88137; 21.2% fat, 0.2% cholesterol, 48.5% carbohydrate, and 17.3% protein by weight). Between weeks 10–16 of feeding, the WD of the experimental group was supplemented with TBX-1 or TBX-2 (600 mg/kg diet) to achieve a dose of ∼30 mg/kg body weight per day, whereas control mice remained on regular WD. The study included four separate cohorts, each comprised of 5 to 10 mice per group. The mice were randomly assigned to the different cohorts. Fasting blood glucose was measured in mice that were fasted for 5 h, with free access to water, using a glucose meter. Insulin tolerance test was performed in 5 h-fasted mice by assaying blood glucose at various times after injection of insulin (0.7 IU/kg body wt i.p.). Plasma insulin levels were measured in mice that were fasted for 5 h using an ultra-sensitive mouse insulin ELISA kit (Crystal Chem). At the time of harvest, mice were euthanized using isoflurane, and blood was then removed by left ventricular puncture. Animals were provided with food and water ad libitum and housed in standard cages at 22°C in a 12-12h light-dark cycle in a barrier facility. The Columbia University IACUC provided ethical approval for these studies, and procedures were conducted in accordance with approved animal protocols.
Total plasma cholesterol and triglyceride levels were measured using commercially available kits (Wako Diagnostics). Plasma lipoproteins were analyzed by running 200 μl of pooled plasma onto a fast protein liquid chromatography system consisting of 2 Superose 6 columns connected in series (Amersham Pharmacia Biotech) as described previously.

[1] = system: MK2 activity (phospho-hsp25); experiment: Phospho-hsp25 (MK2 substrate) in liver and aortic root lesions of WD-fed Ldlr-/- mice; format: in vivo, mouse; details: ~30 mg/kg body weight per day in WD for 6 weeks
Protocol: Eight-week-old male Ldlr^-/- mice on the C57BL/6J background were purchased from Jackson Laboratory (stock # 002207) and fed a Western-type Diet (WD) for 16 weeks (Envigo, TD.88137; 21.2% fat, 0.2% cholesterol, 48.5% carbohydrate, and 17.3% protein by weight). Between weeks 10–16 of feeding, the WD of the experimental group was supplemented with TBX-1 or TBX-2 (600 mg/kg diet) to achieve a dose of ∼30 mg/kg body weight per day, whereas control mice remained on regular WD. The study included four separate cohorts, each comprised of 5 to 10 mice per group. The mice were randomly assigned to the different cohorts. Fasting blood glucose was measured in mice that were fasted for 5 h, with free access to water, using a glucose meter. […] Plasma insulin levels were measured in mice that were fasted for 5 h using an ultra-sensitive mouse insulin ELISA kit (Crystal Chem). […]
Total lesion area and necrotic area analysis were carried out on hematoxylin and eosin (H&E)-stained aortic root lesional cross sections as previously described. Briefly, total lesion area (from internal elastic lamina to the lumen) and acellular/anuclear areas (negative for hematoxylin-positive nuclei) per cross section were quantified by taking the average of 6 sections spaced 30 μm apart beginning at the base of the aortic root. […] Three slides, each with 2 sections, were assessed for each mouse. […]

hMK2 = hMK2 (Homo sapiens, UniProt P49137); experiment: hMK2 inhibition; format: biochemical
[2] = Pharmacokinetics in CD-1 mice after single oral and intravenous administration; format: in vivo, mouse; details: for Clearance (Cl) / Cmax / F (oral bioavailability) / Half-life: CD-1 mice, TBX-1 1 mpk iv and 5 mpk po, TBX-2 1 mpk iv and 3 mpk po; for plasma half-life: mice, intravenous and oral administration
Protocol: The pharmacokinetics of the compounds were evaluated in CD-1 mice by single oral and intravenous routes of drug administration. The mice were fasted overnight before oral-gavage dosing of the compounds. The solutions used for PK studies were prepared by dissolving the compounds in 5% Solutol HS 15 in water. Following oral or intravenous administration of compounds, blood samples were collected at 0.08, 0.25, 0.5, 1, 2, 4, 6, 8, 12, and 24 h after dosing. Blood samples were centrifuged to separate plasma, and compound concentrations were determined by LC-MS. Dosing was well tolerated following oral and intravenous administration of both compounds, and no abnormal behavior was observed.

[3] = system: aortic root lesions of WD-fed Ldlr-/- mice; experiment: Aortic root atherosclerotic lesion analysis and in situ efferocytosis in WD-fed Ldlr-/- mice; format: in vivo, mouse; details: for total necrotic area: aortic root; for collagen content of the lesions / fibrous-cap thickness: picrosirius red; for collagen content of the lesions: percent of total lesion area; for fibrous-cap thickness: ratio of cap thickness to lesion size
Protocol: as §1
Total lesion area and necrotic area analysis were carried out on hematoxylin and eosin (H&E)-stained aortic root lesional cross sections as previously described. Briefly, total lesion area (from internal elastic lamina to the lumen) and acellular/anuclear areas (negative for hematoxylin-positive nuclei) per cross section were quantified by taking the average of 6 sections spaced 30 μm apart beginning at the base of the aortic root. Necrotic areas were defined as anuclear areas based on absence of hematoxylin staining. Collagen staining was performed using picrosirius red as per the manufacturer’s instructions (Polysciences Inc.), and fibrous cap thickness was quantified from 3 distinct regions of the plaque and scored per lesion size as previously described. For immunofluorescence staining, frozen sections were fixed in cold acetone for 10 minutes. After blocking for 1 hour in serum-free protein blocking buffer (DAKO, catalog X0909), sections were incubated overnight at 4°C with anti–phospho-hsp25 (CST, 1:200), anti-Mac2 (1:10,000), and smooth-muscle α actin (SMαA, 1:150) antibodies, rinsed with PBS three times, incubated with fluorescently-labeled secondary antibodies for 2 hours, and counterstained with DAPI. Three slides, each with 2 sections, were assessed for each mouse.
Experimentation was carried out as previously described. In brief, acetone-fixed aortic root sections were incubated with TUNEL (Roche) followed by staining with anti-Mac2 (1:10,000) to label macrophages. Apoptotic cells were then determined to be either macrophage-associated (colocalizing or juxtaposed with macrophages) or free (not associated with macrophages). Data were plotted as a ratio of associated-to free cells, which is a measure of efferocytosis.

[4] = system: forskolin-induced G6pc mRNA; experiment: Forskolin-induced G6pc mRNA in primary mouse hepatocytes (RT-qPCR); format: cell-based; details: TBX-1 1 h, then TBX-1 and forskolin 4 h in serum-free media
Protocol: Primary mouse hepatocytes were isolated from 8- to 12-week-old mice as described previously and cultured in media containing Dulbecco’s Modified Eagle’s Medium (DMEM) (Corning, #10-013-CV), 10% (vol/vol) heat-inactivated FBS, and 1X penicillin-streptomycin. After overnight incubation, the cells were washed twice with PBS, treated with the indicated concentrations of TBX-1 for 1 h, followed by treatment with TBX-1 and forskolin for 4 h in FBS-free media.
Immunoblot and quantitative RT-PCR (RT-qPCR) assays were conducted as previously described. […]
Densitometric quantification of the data are shown in the bar graphs (n = 5-6 mice/group; mean ± SEM, p = 0.003, p = 0.001 and p = 0.02, respectively).
S2 Fig. Blood leukocyte and monocyte counts are similar between control and MK2 inhibitor–treated mice. […] Whole blood was analyzed for the number of total white blood cells (A) and monocytes (B) from a randomly selected subset of TBX-1–treated Ldlr-/- mice (n = 19 mice/group; mean ± SEM). […]
S3 Fig. Lesional collagen content is increased, whereas macrophage and smooth muscle cell numbers are similar between control and MK2 inhibitor–treated mice. […] Picrosirius red staining was quantified, and collagen content is expressed as percent of total lesion area (n = 7-10 mice/group; mean ± SEM, p = 0.009 and p = 0.03, respectively). […]

Chain of hMK2 (P49137 whole entry): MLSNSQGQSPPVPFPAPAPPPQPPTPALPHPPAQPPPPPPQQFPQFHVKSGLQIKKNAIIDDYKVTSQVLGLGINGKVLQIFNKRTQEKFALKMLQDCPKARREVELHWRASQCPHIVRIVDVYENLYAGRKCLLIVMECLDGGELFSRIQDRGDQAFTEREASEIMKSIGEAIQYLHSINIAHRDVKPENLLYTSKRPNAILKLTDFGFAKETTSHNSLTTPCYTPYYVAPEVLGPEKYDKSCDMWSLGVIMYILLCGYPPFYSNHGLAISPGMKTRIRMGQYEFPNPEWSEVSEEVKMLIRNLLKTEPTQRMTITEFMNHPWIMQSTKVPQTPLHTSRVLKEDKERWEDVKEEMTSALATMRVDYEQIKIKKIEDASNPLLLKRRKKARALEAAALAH

Row | IC50 (hMK2) [nM] | Clearance (Cl) [2] [mL/min/kg] | Cmax [2] [nM] | F (oral bioavailability) [2] [%] | Half-life [2] [h] | plasma half-life [2] [h] | Structure (SMILES) | blood leukocyte (total white blood cell) count (WD-fed Ldlr-/- mice) | blood monocyte count (WD-fed Ldlr-/- mice) | LDL-cholesterol (fast protein liquid chromatography of plasma) (WD-fed Ldlr-/- mice) | VLDL-cholesterol (fast protein liquid chromatography of plasma) (WD-fed Ldlr-/- mice) | phospho-hsp25 levels in atherosclerotic lesions ([1]; aortic root sections, MFI within Mac2+ area) | phosphorylation of hsp25 in liver ([1]; liver extracts, immunoblot) | total necrotic area [3] | collagen content of the lesions [3] | fibrous-cap thickness [3] | forskolin-induced G6pc mRNA [4]
1 | 67 | 24.8 | 58 | 20.0 | 2.7 | 2.7 | CN(C)[C@@H]1CCN(c2ccc3c(c2)Cn2cc(-c4ccc(C#N)cc4)cc2-c2nncn2-3)C1 [TBX-1] | similar | similar | reduced | reduced | significantly reduced | efficiently reduced | significantly reduced | significantly increased | significantly increased | inhibited forskolin-induced G6pc mRNA in a dose-dependent manner
2 | 19 | 12.2 | 296 | 89.1 | 3.1 | 3.1 | CN(C)C[C@H]1CC(=O)N(c2ccc3c(c2)Cn2cc(-c4ccc(C#N)cc4)cc2-c2nccn2-3)C1 [TBX-2] | similar | similar | reduced | reduced |  |  | significantly reduced | significantly increased | significantly increased | 

Reference: publication PMC8118275, “Allosteric MAPKAPK2 inhibitors improve plaque stability in advanced atherosclerosis” (PLoS ONE, 2021)
